Results as given in paper PMC5078040 (Oncotarget, 2016).
pEC50, pIC50: −log10 of the molar value.

Columns and labels:
[1] = molecular target: T1, KIT(L576P) (Homo sapiens, UniProt P10721, L576P); assay: KinomeScan; type: binding; conditions: 1uM
T1 construct: purchased DiscoveRx KINOMEscan

[2] = molecular target: T2, PIK3CA(I800L) (Homo sapiens, UniProt P42336, I800L); assay: KinomeScan; type: binding; conditions: 1uM
T2 construct: purchased DiscoveRx KINOMEscan

[3] = molecular target: T3, CIT (Homo sapiens, UniProt O14578); assay: KinomeScan; type: binding; conditions: 1uM
T3 construct: purchased DiscoveRx KINOMEscan

[4] = molecular target: T4, CDK5 (Homo sapiens, UniProt Q00535); assay: KinomeScan; type: binding; conditions: 1uM
T4 construct: purchased DiscoveRx KINOMEscan
T4 sequence (Q00535 whole entry): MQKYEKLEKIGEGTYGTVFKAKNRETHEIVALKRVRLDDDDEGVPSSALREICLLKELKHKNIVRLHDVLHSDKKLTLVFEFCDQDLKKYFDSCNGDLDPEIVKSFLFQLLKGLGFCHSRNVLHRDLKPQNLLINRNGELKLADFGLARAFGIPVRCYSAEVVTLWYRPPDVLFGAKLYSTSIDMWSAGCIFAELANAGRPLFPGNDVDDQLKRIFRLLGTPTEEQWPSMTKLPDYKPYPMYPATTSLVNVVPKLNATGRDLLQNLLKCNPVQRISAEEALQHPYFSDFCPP

[5] = molecular target: T5, CDK2 (Homo sapiens, UniProt P24941); assay: KinomeScan; type: binding; conditions: 1uM
T5 construct: purchased DiscoveRx KINOMEscan

[6] = molecular target: T6, HIPK4 (Homo sapiens, UniProt Q8NE63); assay: KinomeScan; type: binding; conditions: 1uM
T6 construct: purchased DiscoveRx KINOMEscan

[7] = molecular target: T7, MEK6 (Homo sapiens, UniProt P52564); assay: KinomeScan; type: binding; conditions: 1uM
T7 construct: purchased DiscoveRx KINOMEscan

[8] = molecular target: T8, BMX (Homo sapiens, UniProt P51813); assay: KinomeScan; type: binding; conditions: 1uM
T8 construct: purchased DiscoveRx KINOMEscan

[9] = molecular target: T9, SRPK2 (Homo sapiens, UniProt P78362); assay: KinomeScan; type: binding; conditions: 1uM
T9 construct: purchased DiscoveRx KINOMEscan
T9 sequence (P78362 whole entry): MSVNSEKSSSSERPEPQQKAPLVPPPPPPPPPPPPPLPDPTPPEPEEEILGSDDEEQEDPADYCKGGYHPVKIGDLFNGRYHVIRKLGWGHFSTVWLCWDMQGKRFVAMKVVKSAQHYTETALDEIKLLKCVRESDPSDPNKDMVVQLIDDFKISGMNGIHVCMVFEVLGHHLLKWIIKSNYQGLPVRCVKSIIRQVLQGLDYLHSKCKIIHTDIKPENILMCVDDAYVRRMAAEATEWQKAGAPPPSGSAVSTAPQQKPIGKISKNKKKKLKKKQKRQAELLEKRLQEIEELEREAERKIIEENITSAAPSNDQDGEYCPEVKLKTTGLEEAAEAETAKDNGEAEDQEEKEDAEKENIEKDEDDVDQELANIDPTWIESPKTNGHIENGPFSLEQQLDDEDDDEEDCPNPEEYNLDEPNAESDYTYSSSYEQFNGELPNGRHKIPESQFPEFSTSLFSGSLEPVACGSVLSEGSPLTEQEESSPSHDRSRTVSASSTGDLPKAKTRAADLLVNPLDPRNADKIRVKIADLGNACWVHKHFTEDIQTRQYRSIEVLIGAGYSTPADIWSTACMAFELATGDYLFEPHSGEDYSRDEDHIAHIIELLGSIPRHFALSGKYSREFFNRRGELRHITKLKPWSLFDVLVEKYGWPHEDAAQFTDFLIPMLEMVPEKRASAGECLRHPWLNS

[10] = molecular target: T10, BMPR2 (Homo sapiens, UniProt Q13873); assay: KinomeScan; type: binding; conditions: 1uM
T10 construct: purchased DiscoveRx KINOMEscan

[11] = molecular target: T11, MKNK1 (Homo sapiens, UniProt Q9BUB5); assay: KinomeScan; type: binding; conditions: 1uM
T11 construct: purchased DiscoveRx KINOMEscan

[12] = molecular target: T12, TIE2 (Homo sapiens, UniProt Q02763); assay: KinomeScan; type: binding; conditions: 1uM
T12 construct: purchased DiscoveRx KINOMEscan

[13] = molecular target: T13, PAK4 (Homo sapiens, UniProt O96013); assay: KinomeScan; type: binding; conditions: 1uM
T13 construct: purchased DiscoveRx KINOMEscan

[14] = molecular target: T14, PKMYT1 (Homo sapiens, UniProt Q99640); assay: KinomeScan; type: binding; conditions: 1uM
T14 construct: purchased DiscoveRx KINOMEscan

[15] = molecular target: T15, p38-delta (Homo sapiens, UniProt O15264); assay: KinomeScan; type: binding; conditions: 1uM
T15 construct: purchased DiscoveRx KINOMEscan
T15 sequence (O15264 whole entry): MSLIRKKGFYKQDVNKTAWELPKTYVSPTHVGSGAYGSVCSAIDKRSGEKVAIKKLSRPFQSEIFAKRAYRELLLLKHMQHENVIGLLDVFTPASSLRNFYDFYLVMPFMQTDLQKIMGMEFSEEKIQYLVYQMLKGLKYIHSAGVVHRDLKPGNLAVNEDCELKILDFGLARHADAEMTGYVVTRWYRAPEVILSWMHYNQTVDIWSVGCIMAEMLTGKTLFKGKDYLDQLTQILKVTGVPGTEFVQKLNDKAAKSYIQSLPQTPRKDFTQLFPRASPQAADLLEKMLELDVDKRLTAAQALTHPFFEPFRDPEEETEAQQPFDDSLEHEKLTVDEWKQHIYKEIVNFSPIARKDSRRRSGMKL

[16] = molecular target: T16, BRK (Homo sapiens, UniProt Q13882); assay: KinomeScan; type: binding; conditions: 1uM
T16 construct: purchased DiscoveRx KINOMEscan

[17] = molecular target: T17, RET(M918T) (Homo sapiens, UniProt P07949, M918T); assay: KinomeScan; type: binding; conditions: 1uM
T17 construct: purchased DiscoveRx KINOMEscan

[18] = molecular target: PI3Kα (Homo sapiens, UniProt P42336); assay: biochemical
Experimental: (§2) The reaction in each tube was started immediately by adding ATP and kept going for an hour under 37°C. After the tube cooled for 5 minutes at room temperature, 5 μL solvent reactions were carried out in a 384-well plate. Then 5 μL of ADP-Glo™ reagent was added into each well to stop the reaction and consume the remaining ADP within 40 minutes. At the end, 10 μL of kinase detection reagent was added into the well and incubated for 30 minutes to produce a luminescence signal. Luminescence signal was measured with an automated plate reader (Perkin-Elmer Envision) and each measurement was performed in triplicate.

[19] = molecular target: T18, PIK4CB (Homo sapiens, UniProt Q9UBF8); assay: KinomeScan; type: binding; conditions: 1uM
T18 construct: purchased DiscoveRx KINOMEscan

[20] = molecular target: T19, TAK1 (Homo sapiens, UniProt O43318); assay: KinomeScan; type: binding; conditions: 1uM
T19 construct: purchased DiscoveRx KINOMEscan

[21] = molecular target: T20, TBK1 (Homo sapiens, UniProt Q9UHD2); assay: KinomeScan; type: binding; conditions: 1uM
T20 construct: purchased DiscoveRx KINOMEscan
T20 sequence (Q9UHD2 whole entry): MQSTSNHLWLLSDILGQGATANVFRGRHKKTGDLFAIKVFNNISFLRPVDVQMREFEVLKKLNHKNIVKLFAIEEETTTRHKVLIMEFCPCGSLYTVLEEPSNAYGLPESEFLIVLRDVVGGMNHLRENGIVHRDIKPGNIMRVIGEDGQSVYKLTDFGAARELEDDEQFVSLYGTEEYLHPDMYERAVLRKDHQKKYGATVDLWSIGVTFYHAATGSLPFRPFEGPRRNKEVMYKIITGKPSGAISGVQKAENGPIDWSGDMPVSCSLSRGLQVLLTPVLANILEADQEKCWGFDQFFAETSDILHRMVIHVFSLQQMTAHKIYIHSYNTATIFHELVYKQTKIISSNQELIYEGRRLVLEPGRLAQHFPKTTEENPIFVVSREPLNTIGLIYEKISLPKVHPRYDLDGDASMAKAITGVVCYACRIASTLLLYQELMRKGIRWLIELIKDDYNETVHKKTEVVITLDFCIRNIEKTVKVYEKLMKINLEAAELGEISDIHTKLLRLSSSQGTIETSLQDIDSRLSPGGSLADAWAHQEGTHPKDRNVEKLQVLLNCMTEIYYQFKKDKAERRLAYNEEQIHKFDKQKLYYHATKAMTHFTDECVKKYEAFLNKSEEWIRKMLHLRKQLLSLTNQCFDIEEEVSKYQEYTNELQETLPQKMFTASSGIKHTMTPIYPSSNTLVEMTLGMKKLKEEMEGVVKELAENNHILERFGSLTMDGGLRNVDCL

[22] = molecular target: T21, PIK3C2A (Homo sapiens, UniProt O00443); assay: ADP-glo biochemical assay
T21 construct: purchased Invitrogen
Experimental: as §2

[23] = molecular target: T22, PIK3CA(E545A) (Homo sapiens, UniProt P42336, E545A); assay: KinomeScan; type: binding; conditions: 1uM
T22 construct: purchased DiscoveRx KINOMEscan

[24] = molecular target: T23, SIK2 (Homo sapiens, UniProt Q9H0K1); assay: KinomeScan; type: binding; conditions: 1uM
T23 construct: purchased DiscoveRx KINOMEscan
T23 sequence (Q9H0K1 whole entry): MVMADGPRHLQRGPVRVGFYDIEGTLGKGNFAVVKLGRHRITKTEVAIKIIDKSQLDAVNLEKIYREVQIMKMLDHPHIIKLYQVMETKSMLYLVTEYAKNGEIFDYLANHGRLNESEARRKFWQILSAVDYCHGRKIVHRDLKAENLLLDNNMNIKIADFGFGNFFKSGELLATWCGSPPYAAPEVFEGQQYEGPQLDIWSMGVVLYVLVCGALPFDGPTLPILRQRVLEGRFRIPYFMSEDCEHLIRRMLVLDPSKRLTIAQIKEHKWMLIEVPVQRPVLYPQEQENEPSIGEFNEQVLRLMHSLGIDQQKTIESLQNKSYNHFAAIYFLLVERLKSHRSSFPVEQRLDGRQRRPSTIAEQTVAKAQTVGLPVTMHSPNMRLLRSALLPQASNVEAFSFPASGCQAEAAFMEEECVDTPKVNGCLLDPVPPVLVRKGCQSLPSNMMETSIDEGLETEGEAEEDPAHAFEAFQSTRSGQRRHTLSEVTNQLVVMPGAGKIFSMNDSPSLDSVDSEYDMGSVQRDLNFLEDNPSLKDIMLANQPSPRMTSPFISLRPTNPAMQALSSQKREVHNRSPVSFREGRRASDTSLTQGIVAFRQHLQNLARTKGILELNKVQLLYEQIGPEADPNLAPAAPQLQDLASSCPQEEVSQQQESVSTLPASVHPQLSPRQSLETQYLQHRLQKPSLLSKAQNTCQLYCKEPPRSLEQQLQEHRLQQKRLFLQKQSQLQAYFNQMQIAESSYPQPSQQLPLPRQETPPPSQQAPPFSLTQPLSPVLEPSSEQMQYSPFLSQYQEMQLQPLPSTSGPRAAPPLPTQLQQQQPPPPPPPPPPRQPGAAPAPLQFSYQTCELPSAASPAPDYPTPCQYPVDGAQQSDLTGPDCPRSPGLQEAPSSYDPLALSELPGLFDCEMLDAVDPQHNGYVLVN

[25] = molecular target: T24, ARK5 (Homo sapiens, UniProt O60285); assay: KinomeScan; type: binding; conditions: 1uM
T24 construct: purchased DiscoveRx KINOMEscan

[26] = molecular target: T25, PI4KB (Homo sapiens, UniProt Q9UBF8); assay: ADP-glo biochemical assay
T25 construct: purchased Invitrogen
Experimental: as §2

[27] = molecular target: T26, CDK4-cyclinD1 (Homo sapiens, UniProt P11802); assay: KinomeScan; type: binding; conditions: 1uM
T26 construct: purchased DiscoveRx KINOMEscan
T26 sequence (P11802 whole entry): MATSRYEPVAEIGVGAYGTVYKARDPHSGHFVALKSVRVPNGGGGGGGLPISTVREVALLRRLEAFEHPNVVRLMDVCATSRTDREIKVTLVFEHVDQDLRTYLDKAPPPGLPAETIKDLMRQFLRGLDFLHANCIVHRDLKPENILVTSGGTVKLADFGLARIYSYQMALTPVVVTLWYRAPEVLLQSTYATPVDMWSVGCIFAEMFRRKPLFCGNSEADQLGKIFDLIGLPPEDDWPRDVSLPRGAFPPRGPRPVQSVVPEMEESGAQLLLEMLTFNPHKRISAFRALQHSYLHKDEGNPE
T26 sequence (P24385 whole entry partner): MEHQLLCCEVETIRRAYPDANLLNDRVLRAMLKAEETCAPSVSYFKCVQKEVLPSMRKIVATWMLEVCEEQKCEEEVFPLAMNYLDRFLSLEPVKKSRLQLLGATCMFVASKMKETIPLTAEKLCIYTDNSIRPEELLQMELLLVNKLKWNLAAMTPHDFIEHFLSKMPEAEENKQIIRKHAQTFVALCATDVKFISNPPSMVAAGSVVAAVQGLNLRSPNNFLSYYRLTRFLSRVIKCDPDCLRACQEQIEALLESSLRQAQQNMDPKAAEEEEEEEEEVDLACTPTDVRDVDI

[28] = tested on: HT (B-NHL); assay: Colony formation assay; type: cell-based; conditions: Homo sapiens, HT15, 360 h, 15 days, read-out: anti-colony formation EC50
Experimental: (§1) In brief, 1 mL of 3 % agarose combined with 1 mL HT, REC-1, MEC-1 and MOLM-13 growth media was used as the bottom agar in a 6-well plate. […] Cells were maintained in a humidified 5% CO2 incubator at 37°C for 15 days. On the 15th day, the numbers of colonies in each well were counted and each measurement was performed in triplicate.

[29] = tested on: MOLM13 (AML); assay: Colony formation assay; type: cell-based; conditions: Homo sapiens, MOLM-13, 360 h; MOLM13, 15 days; read-out: anti-colony formation EC50
Experimental: as §1

[30] = tested on: MEC-1 (CLL); assay: Colony formation assay; type: cell-based; conditions: Homo sapiens, MEC1, 360 h; MEC-1, 15 days; read-out: anti-colony formation EC50
Experimental: as §1

[31] = molecular target: T27, IRAK1 (Homo sapiens, UniProt P51617); assay: KinomeScan; type: binding; conditions: 1uM
T27 construct: purchased DiscoveRx KINOMEscan

[32] = molecular target: T28, FYN (Homo sapiens, UniProt P06241); assay: KinomeScan; type: binding; conditions: 1uM
T28 construct: purchased DiscoveRx KINOMEscan

[33] = molecular target: T29, RIPK4 (Homo sapiens, UniProt P57078); assay: KinomeScan; type: binding; conditions: 1uM
T29 construct: purchased DiscoveRx KINOMEscan
T29 sequence (P57078 whole entry): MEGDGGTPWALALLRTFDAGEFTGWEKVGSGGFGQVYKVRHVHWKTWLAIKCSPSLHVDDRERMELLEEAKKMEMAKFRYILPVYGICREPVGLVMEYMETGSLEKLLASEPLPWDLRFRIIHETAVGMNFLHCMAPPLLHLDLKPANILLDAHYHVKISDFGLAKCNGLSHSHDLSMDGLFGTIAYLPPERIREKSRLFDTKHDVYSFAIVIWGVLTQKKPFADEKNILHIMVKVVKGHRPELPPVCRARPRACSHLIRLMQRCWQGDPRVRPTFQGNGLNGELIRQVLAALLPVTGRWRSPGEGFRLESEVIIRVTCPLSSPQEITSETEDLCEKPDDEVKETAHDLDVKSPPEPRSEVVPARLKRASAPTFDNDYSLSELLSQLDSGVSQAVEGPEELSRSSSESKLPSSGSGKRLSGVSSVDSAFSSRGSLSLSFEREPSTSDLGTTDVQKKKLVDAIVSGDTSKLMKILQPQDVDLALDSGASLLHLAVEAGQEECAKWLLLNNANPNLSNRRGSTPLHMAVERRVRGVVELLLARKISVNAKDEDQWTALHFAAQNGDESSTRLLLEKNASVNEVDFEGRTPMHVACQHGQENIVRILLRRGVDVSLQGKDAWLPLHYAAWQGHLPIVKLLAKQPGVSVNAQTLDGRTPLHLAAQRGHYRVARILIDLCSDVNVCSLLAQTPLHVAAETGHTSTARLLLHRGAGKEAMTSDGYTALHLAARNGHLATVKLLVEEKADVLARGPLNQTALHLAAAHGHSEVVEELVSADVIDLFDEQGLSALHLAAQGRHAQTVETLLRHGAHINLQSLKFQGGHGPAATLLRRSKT

[34] = molecular target: T30, TGFBR2 (Homo sapiens, UniProt P37173); assay: KinomeScan; type: binding; conditions: 1uM
T30 construct: purchased DiscoveRx KINOMEscan
T30 sequence (P37173 23-567): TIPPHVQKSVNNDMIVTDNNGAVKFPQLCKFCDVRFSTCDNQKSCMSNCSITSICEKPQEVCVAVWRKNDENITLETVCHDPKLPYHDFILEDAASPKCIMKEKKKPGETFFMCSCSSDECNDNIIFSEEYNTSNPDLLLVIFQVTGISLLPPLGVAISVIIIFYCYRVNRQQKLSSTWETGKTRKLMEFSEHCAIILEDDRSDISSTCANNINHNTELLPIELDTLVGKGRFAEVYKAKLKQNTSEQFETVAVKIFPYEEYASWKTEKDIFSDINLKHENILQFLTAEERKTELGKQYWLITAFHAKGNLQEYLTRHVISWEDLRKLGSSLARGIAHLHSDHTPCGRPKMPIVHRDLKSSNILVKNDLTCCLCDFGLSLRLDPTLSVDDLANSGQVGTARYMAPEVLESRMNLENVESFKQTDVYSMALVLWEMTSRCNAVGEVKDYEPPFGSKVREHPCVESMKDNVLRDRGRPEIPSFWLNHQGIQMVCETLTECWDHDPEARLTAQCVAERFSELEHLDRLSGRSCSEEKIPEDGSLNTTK

For `Cc1nc(NC(=O)[C@@H](N)C(C)C)sc1-c1cnc(Cl)c(NS(=O)(=O)c2ccccc2)c1` [PI3KD-IN-015], the “KinomeScan KIT(L576P)” value [1] was 83, the “KinomeScan PIK3CA(I800L)” value [2] was 0.5 and the “KinomeScan CIT” value [3] was 100. For the same compound, the “KinomeScan CDK5” value [4] was 100, the “KinomeScan CDK2” value [5] was 88 and the “KinomeScan HIPK4” value [6] was 83. For the same compound, the “KinomeScan MEK6” value [7] was 100, the “KinomeScan BMX” value [8] was 100 and the “KinomeScan SRPK2” value [9] was 100. For the same compound, the “KinomeScan BMPR2” value [10] was 96, the “KinomeScan MKNK1” value [11] was 100 and the “KinomeScan TIE2” value [12] was 89. For the same compound, the “KinomeScan PAK4” value [13] was 100, the “KinomeScan PKMYT1” value [14] was 100 and the “KinomeScan p38-delta” value [15] was 98. The “KinomeScan BRK” value [16] was 92, the “KinomeScan RET(M918T)” value [17] was 95 and the pIC50 [18] was 7.22. The “KinomeScan PIK4CB” value [19] was 0.8, the “KinomeScan TAK1” value [20] was 100 and the “KinomeScan TBK1” value [21] was 100. The pIC50 [22] was under 5.00, the “KinomeScan PIK3CA(E545A)” value [23] was 5.2 and the “KinomeScan SIK2” value [24] was 95. For the same compound, the “KinomeScan ARK5” value [25] was 87, the pIC50 [26] was 6.76 and the “KinomeScan CDK4-cyclinD1” value [27] was 90. The pEC50 [28] was 6.43, the pEC50 [29] was 6.67 and the pEC50 [30] was 6.12. The “KinomeScan IRAK1” value [31] was 60, the “KinomeScan FYN” value [32] was 100 and the “KinomeScan RIPK4” value [33] was 100. The “KinomeScan TGFBR2” value [34] was 100.
